# Test results: PMC9732360, “Discovery and structure of a widespread bacterial ABC transporter specific for ergothioneine” (Nature Communications, 2022)
# What was measured:
# SpEgtUC [1] = biological target: T1, SpEgtUC (Streptococcus pneumoniae, UniProt A0A0H2ZQB9); assay: NMR chemical shift perturbation titration; format: binding; conditions: read-out: Ka (M^-1) (converted)
# T1 construct: gene egtUBC; N-terminal His6-SUMO cleaved off; expressed in E. coli BL21(DE3); monomer
# From the text: NMR chemical shift perturbation titration on SpEgtUC
# EgtUA = EgtUA (Streptococcus pneumoniae, UniProt A0A0H2ZLL3)
# SpEgtUC [2] = biological target: T2, SpEgtUC (Streptococcus pneumoniae, UniProt A0A0H2ZQB9, E375Q); assay: biochemical
# T2 construct: gene egtUBC
# SpEgtUC [3] = biological target: T3, SpEgtUC (Streptococcus pneumoniae, UniProt A0A0H2ZQB9, G244F); assay: biochemical
# T3 construct: gene egtUBC
# SaEgtUC = biological target: T4, SaEgtUC (Staphylococcus aureus, UniProt A0A0H2XK79); assay: intrinsic tyrosine fluorescence titration; format: binding; conditions: read-out: Ka (M^-1) (converted)
# T4 construct: gene egtUBC; N-terminal His6-SUMO cleaved off; expressed in E. coli BL21(DE3)
# T4 sequence (A0A0H2XK79 233-504): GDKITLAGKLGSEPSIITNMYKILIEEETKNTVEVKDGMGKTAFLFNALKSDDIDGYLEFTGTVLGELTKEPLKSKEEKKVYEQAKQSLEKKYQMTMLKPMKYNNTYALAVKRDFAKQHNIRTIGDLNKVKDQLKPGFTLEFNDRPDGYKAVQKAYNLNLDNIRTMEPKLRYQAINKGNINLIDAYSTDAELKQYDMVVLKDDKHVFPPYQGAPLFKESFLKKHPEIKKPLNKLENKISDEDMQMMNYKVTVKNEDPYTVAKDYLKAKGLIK
# From the text: intrinsic tyrosine fluorescence titration on SaEgtUC
# SpEgtUC [4] = biological target: T5, SpEgtUC (Streptococcus pneumoniae, UniProt A0A0H2ZQB9, F293Y); assay: biochemical
# T5 construct: gene egtUBC
# SpEgtUC [5] = biological target: T1, SpEgtUC; assay: isothermal titration calorimetry; format: binding; conditions: read-out: Ka (M^-1) (converted)
# From the text: isothermal titration calorimetry on SpEgtUC
# EfEgtUC = biological target: T6, EfEgtUC (Enterococcus faecalis, UniProt Q837Z8); assay: intrinsic tyrosine fluorescence titration; format: binding; conditions: read-out: Ka (M^-1) (converted)
# T6 construct: gene egtUBC; N-terminal His6-SUMO cleaved off; expressed in E. coli BL21(DE3)
# T6 sequence (Q837Z8 233-505): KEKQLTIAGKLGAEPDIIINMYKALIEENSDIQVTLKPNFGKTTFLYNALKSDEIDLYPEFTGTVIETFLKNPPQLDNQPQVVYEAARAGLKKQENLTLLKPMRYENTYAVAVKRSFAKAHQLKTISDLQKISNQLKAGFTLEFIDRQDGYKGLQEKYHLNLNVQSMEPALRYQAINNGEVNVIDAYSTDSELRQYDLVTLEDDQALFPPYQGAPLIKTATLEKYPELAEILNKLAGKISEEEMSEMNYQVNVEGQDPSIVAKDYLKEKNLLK
# From the text: intrinsic tyrosine fluorescence titration on EfEgtUC
# LmEgtUC = biological target: T7, LmEgtUC (Listeria monocytogenes, UniProt Q8Y775); assay: intrinsic tyrosine fluorescence titration; format: binding; conditions: read-out: Ka (M^-1) (converted)
# T7 construct: gene egtUBC; N-terminal His6-SUMO cleaved off; expressed in E. coli BL21(DE3); the lmo locus tag is of strain EGD-e, strain used printed as 10403S
# From the text: intrinsic tyrosine fluorescence titration on LmEgtUC
# SpEgtUC [6] = biological target: T8, SpEgtUC (Streptococcus pneumoniae, UniProt A0A0H2ZQB9, Y419F); assay: biochemical
# T8 construct: gene egtUBC
# SpEgtUCCTT = biological target: T9, SpEgtUCCTT (Streptococcus pneumoniae, UniProt A0A0H2ZQB9, G502V/L503C); assay: biochemical
# T9 construct: gene egtUBC
# T9 sequence (A0A0H2ZQB9 233-503 G502V/L503C): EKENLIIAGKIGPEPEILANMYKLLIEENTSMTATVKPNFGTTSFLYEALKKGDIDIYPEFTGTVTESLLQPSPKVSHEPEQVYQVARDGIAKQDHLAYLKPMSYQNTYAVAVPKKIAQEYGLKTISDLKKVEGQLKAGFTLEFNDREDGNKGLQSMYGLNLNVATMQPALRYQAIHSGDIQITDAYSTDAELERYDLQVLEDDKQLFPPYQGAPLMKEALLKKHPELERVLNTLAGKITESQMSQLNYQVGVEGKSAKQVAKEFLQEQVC
# T1 sequence (A0A0H2ZQB9 233-506): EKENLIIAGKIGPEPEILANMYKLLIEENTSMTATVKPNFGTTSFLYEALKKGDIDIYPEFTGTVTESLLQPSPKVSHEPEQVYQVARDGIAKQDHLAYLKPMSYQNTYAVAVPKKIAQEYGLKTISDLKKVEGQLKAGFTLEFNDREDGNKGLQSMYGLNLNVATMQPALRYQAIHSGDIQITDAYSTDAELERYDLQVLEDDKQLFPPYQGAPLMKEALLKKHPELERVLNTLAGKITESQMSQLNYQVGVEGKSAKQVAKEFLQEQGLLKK
# T2 sequence (A0A0H2ZQB9 233-506 E375Q): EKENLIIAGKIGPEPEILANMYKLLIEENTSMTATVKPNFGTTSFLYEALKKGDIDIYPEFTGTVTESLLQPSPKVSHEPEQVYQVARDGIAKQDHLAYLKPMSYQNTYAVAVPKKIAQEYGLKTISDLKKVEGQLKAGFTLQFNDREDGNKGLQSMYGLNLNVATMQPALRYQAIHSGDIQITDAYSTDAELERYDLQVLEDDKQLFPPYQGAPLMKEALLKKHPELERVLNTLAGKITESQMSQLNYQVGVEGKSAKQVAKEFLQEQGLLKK
# T5 sequence (A0A0H2ZQB9 233-506 F293Y): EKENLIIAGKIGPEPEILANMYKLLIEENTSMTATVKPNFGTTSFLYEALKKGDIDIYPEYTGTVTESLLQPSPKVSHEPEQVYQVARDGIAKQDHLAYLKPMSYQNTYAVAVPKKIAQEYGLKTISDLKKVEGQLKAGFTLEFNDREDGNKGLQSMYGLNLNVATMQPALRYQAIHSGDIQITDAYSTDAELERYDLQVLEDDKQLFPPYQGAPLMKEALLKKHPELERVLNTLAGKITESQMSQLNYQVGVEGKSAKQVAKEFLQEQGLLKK
# T7 sequence (Q8Y775 231-504): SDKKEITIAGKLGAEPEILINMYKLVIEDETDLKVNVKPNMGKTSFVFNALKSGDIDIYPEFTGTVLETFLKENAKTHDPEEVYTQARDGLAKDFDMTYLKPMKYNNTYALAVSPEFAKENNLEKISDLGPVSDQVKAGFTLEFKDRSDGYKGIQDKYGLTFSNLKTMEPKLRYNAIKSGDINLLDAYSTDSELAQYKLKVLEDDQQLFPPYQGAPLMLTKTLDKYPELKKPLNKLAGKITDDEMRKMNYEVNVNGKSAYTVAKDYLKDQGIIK
# T3 sequence (A0A0H2ZQB9 233-506 G244F): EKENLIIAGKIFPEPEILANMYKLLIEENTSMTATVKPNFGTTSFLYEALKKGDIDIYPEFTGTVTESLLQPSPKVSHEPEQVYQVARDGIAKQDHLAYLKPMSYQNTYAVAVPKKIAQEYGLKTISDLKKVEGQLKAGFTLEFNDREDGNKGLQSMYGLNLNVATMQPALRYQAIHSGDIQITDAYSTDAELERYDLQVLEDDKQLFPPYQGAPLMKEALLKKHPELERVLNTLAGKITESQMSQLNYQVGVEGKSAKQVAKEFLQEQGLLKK
# EgtUA, sequence (A0A0H2ZLL3 whole entry): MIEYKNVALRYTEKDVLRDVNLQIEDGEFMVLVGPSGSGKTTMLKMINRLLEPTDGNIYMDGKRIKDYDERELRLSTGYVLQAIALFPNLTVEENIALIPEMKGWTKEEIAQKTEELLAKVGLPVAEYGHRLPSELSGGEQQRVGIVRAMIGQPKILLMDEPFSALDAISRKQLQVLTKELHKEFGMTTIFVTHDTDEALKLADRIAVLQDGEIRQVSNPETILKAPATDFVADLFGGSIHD
# T8 sequence (A0A0H2ZQB9 233-506 Y419F): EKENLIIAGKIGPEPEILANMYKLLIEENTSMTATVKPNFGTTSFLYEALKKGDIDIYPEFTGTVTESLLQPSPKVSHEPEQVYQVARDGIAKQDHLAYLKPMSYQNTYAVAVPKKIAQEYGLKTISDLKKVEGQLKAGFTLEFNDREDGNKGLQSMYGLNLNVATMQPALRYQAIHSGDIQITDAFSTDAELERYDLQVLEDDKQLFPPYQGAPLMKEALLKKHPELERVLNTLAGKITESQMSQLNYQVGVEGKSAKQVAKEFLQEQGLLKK
smiles,measurement,setting,value
"C[N+](C)(C)CC(=O)[O-] [GB, glycine betaine]",Kd,SpEgtUC [1],> 33300 µM
"C[N+](C)(C)[C@@H](Cc1cnc[nH]1)C(=O)[O-] [HER, L-hercynine]",Kd,SpEgtUC [1],1670 µM
Nc1ncnc2c1ncn2[C@@H]1O[C@H](COP(=O)(O)OP(=O)(O)OP(=O)(O)O)[C@@H](O)[C@H]1O [ATP],in vitro ATPase activity,EgtUA,ATPase activity of WT vs. mutant EgtUA proteins in vitro
"C[N+](C)(C)[C@@H](Cc1c[nH]c(=S)[nH]1)C(=O)[O-] [ET, L-ergothioneine]",Kd,SpEgtUC [2],25 µM
same,Kd,SpEgtUC [3],5 µM
same,Kd,SaEgtUC,0.217 µM
same,Kd,SpEgtUC [4],0.5 µM
same,Kd,SpEgtUC [5],0.0588 µM
same,Kd,EfEgtUC,0.0625 µM
same,Kd,LmEgtUC,0.0556 µM
same,Kd,SpEgtUC [6],0.625 µM
same,Kd,SpEgtUCCTT,0.0526 µM
